Tests used:
Assay in all cases: Test E pre-/postemergence herbicide test
pitted morningglory = format: in vivo, Ipomoea lacunosa
Procedure, shortened: (§1)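 Pre-/postemergence spray, solvent + surfactant vehicle; post timing 1- to 4-leaf stage (2–18 cm). Greenhouse 12–14 d. Visual score 0 (no effect) to 100 (complete control) relative to controls.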

Surinam grass = format: in vivo, Urochloa decumbens
Procedure, shortened: as §1

barnyardgrass = format: in vivo, Echinochloa crus-galli
Procedure, shortened: as §1

johnsongrass = format: in vivo, Sorghum halepense
Procedure, shortened: as §1

common groundsel = format: in vivo, Senecio vulgaris
From the text: Seeds of plant species selected from bipinnate beggarticks (Bidens bipinnata L.), hairy beggarticks (Bidens radiata Thuill.), bermudagrass (Cynodon dactylon (L.) Pers.), Surinam grass (Urochloa decumbens (Staph) R. D. Webster, previously named Brachiaria decumbens Stapf), large crabgrass (Digitaria sanguinalis (L.) Scop.), green foxtail (Setaria viridis (L.) P. Beauv.), goosegrass (Eleusine indica (L.) Gaertn.), johnsongrass (Sorghum halepense (L.) Pers.), kochia (Kochia scoparia (L.) Schrad.), pitted morningglory (Ipomoea lacunosa L.), purple nutsedge (Cyperus rotundus L.), common ragweed (Ambrosia elatior L.), mustard (Brassica nigra (L.) W. D. J. Koch), guineagrass (Panicum maximum Jacq.), dallisgrass (Paspalum dilatatum Poir.), barnyardgrass (Echinochloa crus-galli (L). P. Beauv.), southern sandbur (Cenchrus echinatus L.), common sowthistle (Sonchus oleraceous L.), prickly sida (Sida spinosa L.), Italian ryegrass (Lolium multiflorum Lam.), common purslane (Portulaca oleracea L.), broadleaf signalgrass (Brachiaria platyphylla (Griseb.) Nash), common groundsel (Senecio vulgaris L.), common chickweed (Stellaria media (L.) Vill/Cyr.), tropical spiderwort (Commelina benghalensis L.), annual bluegrass (Poa annua L.), downy bromegrass (Bromus tectorum L.), itchgrass (Rottboellia cochinchinensis (L.) L.f.), quackgrass (Elytrigia repens (L.) Nevski), Canada horseweed (Erigeron Canadensis L.), field bindweed (Convolvulus arvensis L.), spotted spurge (Euphorbia maculata L.), common mallow (Malva sylvestris (=s silvestris) L.), and Russian thistle (Salsola kali L. ssp. Ruthenica (Iljin) Soo) were planted and treated preemergence with test chemicals formulated in a non-phytotoxic solvent mixture which included a surfactant.
At the same time, plants selected from these weed species were treated with postemergence applications of some of the test chemicals formulated in the same manner. Plants ranged in height from 2 to 18 cm (1- to 4-leaf stage) for postemergence treatments. Treated plants and controls were maintained in a greenhouse for 12 to 14 days, after which time all species were compared to controls and visually evaluated. Plant response ratings, summarized in Table E, are based on a scale of 0 to 100 where 0 is no effect and 100 is complete control. A dash (-) response means no test result.

bermudagrass = format: in vivo, Cynodon dactylon
Procedure, shortened: as §1

annual bluegrass = format: in vivo, Poa annua
Procedure, shortened: as §1

Canada horseweed = format: in vivo, Erigeron Canadensis; conditions: Preemergence
Procedure, shortened: as §1

common mallow = format: in vivo, Malva sylvestris
Procedure, shortened: as §1

broadleaf signalgrass = format: in vivo, Brachiaria platyphylla
Procedure, shortened: as §1

[1] = Postemergence, 250 g ai/ha, scale 0 to 100
[2] = Preemergence, 62 g ai/ha, scale 0 to 100
[3] = Preemergence, 125 g ai/ha, scale 0 (no effect) to 100 (complete control)
[4] = Preemergence, 250 g ai/ha, scale 0 (no effect) to 100 (complete control)
[5] = Preemergence, 500 g ai/ha, scale 0 (no effect) to 100 (complete control)
[6] = postemergence, 125 g ai/ha, scale 0 to 100
[7] = postemergence, 62 g ai/ha, scale 0 to 100

In the case of CCNC(=O)c1ccc(F)c(NC(=O)c2cc(C(C)(C)C)nn2CC)c1 [Compound 2, 3-(1,1-dimethylethyl)-1-ethyl-N-[5-[(ethylamino)carbonyl]-2-fluorophenyl]-1H-pyrazole-5-carboxamide], the “Plant response rating, Morningglory” value (pitted morningglory; [1]) is reported as 90, the “Plant response rating, Morningglory” value (pitted morningglory; [2]) is reported as 30 and the “Plant response rating, Morningglory” value (pitted morningglory; [3]) is reported as 50. The “Plant response rating, Morningglory” value (pitted morningglory; [4]) was 60, the “Plant response rating, Morningglory” value (pitted morningglory; [5]) was 80 and the “Plant response rating, Morningglory” value (pitted morningglory; [6]) was 60. The “Plant response rating, Surinam Grass” value (Surinam grass; [1]) was 100, the “Plant response rating, Surinam Grass” value (Surinam grass; [2]) was 60 and the “Plant response rating, Surinam Grass” value (Surinam grass; Preemergence, 125 g ai/ha, scale 0 to 100) was 80. The “Plant response rating, Surinam Grass” value (Surinam grass; [4]) was 80, the “Plant response rating, Surinam Grass” value (Surinam grass; [5]) was 90 and the “Plant response rating, Surinam Grass” value (Surinam grass; [6]) was 90. The “Plant response rating, Surinam Grass” value (Surinam grass; [7]) was 75, the “Plant response rating, Barnyardgrass” value (barnyardgrass; [1]) was 95 and the “Plant response rating, Barnyardgrass” value (barnyardgrass; [2]) was 60. The “Plant response rating, Barnyardgrass” value (barnyardgrass; [3]) was 80, the “Plant response rating, Barnyardgrass” value (barnyardgrass; [4]) was 100 and the “Plant response rating, Barnyardgrass” value (barnyardgrass; [5]) was 100. For the same compound, the “Plant response rating, Barnyardgrass” value (barnyardgrass; [6]) was 90, the “Plant response rating, Barnyardgrass” value (barnyardgrass; [7]) was 80 and the “Plant response rating, Johnsongrass” value (johnsongrass; [1]) was 100. For the same compound, the “Plant response rating, Johnsongrass” value (johnsongrass; [2]) was 90, the “Plant response rating, Johnsongrass” value (johnsongrass; [3]) was 90 and the “Plant response rating, Johnsongrass” value (johnsongrass; [4]) was 100. For the same compound, the “Plant response rating, Johnsongrass” value (johnsongrass; [5]) was 100, the “Plant response rating, Johnsongrass” value (johnsongrass; [6]) was 90 and the “Plant response rating, Johnsongrass” value (johnsongrass; [7]) was 80. For the same compound, the “Plant response rating, Groundsel” value (common groundsel; [1]) was 80, the “Plant response rating, Groundsel” value (common groundsel; [2]) was 60 and the “Plant response rating, Groundsel” value (common groundsel; [3]) was 70. For the same compound, the “Plant response rating, Groundsel” value (common groundsel; [4]) was 100, the “Plant response rating, Groundsel” value (common groundsel; [5]) was 100 and the “Plant response rating, Bermudagrass” value (bermudagrass; [1]) was 90. The “Plant response rating, Bermudagrass” value (bermudagrass; [2]) was 90, the “Plant response rating, Bermudagrass” value (bermudagrass; [3]) was 95 and the “Plant response rating, Bermudagrass” value (bermudagrass; [4]) was 100. For the same compound, the “Plant response rating, Bermudagrass” value (bermudagrass; [5]) was 100, the “Plant response rating, Bermudagrass” value (bermudagrass; [6]) was 85 and the “Plant response rating, Bermudagrass” value (bermudagrass; [7]) was 20. For the same compound, the “Plant response rating, Bluegrass” value (annual bluegrass; [1]) was 100, the “Plant response rating, Bluegrass” value (annual bluegrass; [2]) was 95 and the “Plant response rating, Bluegrass” value (annual bluegrass; [3]) was 100. The “Plant response rating, Bluegrass” value (annual bluegrass; [4]) was 100, the “Plant response rating, Bluegrass” value (annual bluegrass; [5]) was 100 and the “Plant response rating, Bluegrass” value (annual bluegrass; [6]) was 98. For the same compound, the “Plant response rating, Bluegrass” value (annual bluegrass; [7]) was 90, the “Plant response rating, Horseweed” value (Canada horseweed; 62 g ai/ha, scale 0 to 100) was 80 and the “Plant response rating, Horseweed” value (Canada horseweed; 125 g ai/ha, scale 0 (no effect) to 100 (complete control)) was 100. The “Plant response rating, Horseweed” value (Canada horseweed; 250 g ai/ha, scale 0 (no effect) to 100 (complete control)) was 100, the “Plant response rating, Horseweed” value (Canada horseweed; 500 g ai/ha, scale 0 (no effect) to 100 (complete control)) was 100 and the “Plant response rating, Mallow” value (common mallow; [1]) was 80. For the same compound, the “Plant response rating, Mallow” value (common mallow; [2]) was 30, the “Plant response rating, Mallow” value (common mallow; [4]) was 50 and the “Plant response rating, Mallow” value (common mallow; [5]) was 80. For the same compound, the “Plant response rating, Mallow” value (common mallow; [6]) was 75, the “Plant response rating, Mallow” value (common mallow; [7]) was 50 and the “Plant response rating, Signalgrass” value (broadleaf signalgrass; [1]) was 85. The “Plant response rating, Signalgrass” value (broadleaf signalgrass; [2]) was 50, the “Plant response rating, Signalgrass” value (broadleaf signalgrass; [3]) was 70 and the “Plant response rating, Signalgrass” value (broadleaf signalgrass; [4]) was 75. The “Plant response rating, Signalgrass” value (broadleaf signalgrass; [5]) was 90, the “Plant response rating, Signalgrass” value (broadleaf signalgrass; [6]) was 80 and the “Plant response rating, Signalgrass” value (broadleaf signalgrass; [7]) was 30.
